US10206989B2, “CDCA1 epitope peptides for Th1 cells and vaccines containing the same” (OncoTherapy Science, Inc., priority 2012, dated 2019)

How the values were obtained:
[1] = tested on: Th cell clones; test: Recognition of CDCA1 protein-loaded autologous DCs by Th clones (natural processing), IFN-gamma ELISPOT; type: cell-based, human; settings: DCs loaded with recombinant CDCA1 protein 50 micro g/ml
Text: The 6His-tagged recombinant whole CDCA1 proteins and truncated CDCA1 proteins that lack both CDCA1-derived Th epitopes recognized by CDCA1 (55-78) and CDCA1 (39-64)-specific Th cells were expressed by E. coli BL21 strains with a pET28a vector (Novagen) that has respective cDNA fragments. The truncated CDCA1 protein was used as control protein. Each recombinant protein was purified using a HisTrap FF column (GE Healthcare) according to the manufacturer's instruction. The purity of the proteins was verified by SDS-PAGE.
The immune response of Th cells to APCs pulsed with peptides and proteins were assessed by IFN-gamma ELISPOT assays (Human IFN-gamma ELISPOT kit, BD Biosciences) as described previously (Tomita Y et al. Cancer Sci.; 102: 697-705.). Briefly, the frequency of peptide-specific CD4^+ T cells producing interferon (IFN)-gamma per 3×10^4 bulk CD4^+ T cells upon stimulation with peptide-pulsed PBMCs (3×10^4/well), or 1×10^4 bulk CD4^+ T cells upon stimulation with peptide-pulsed HLA-DR-expressing L-cells (5×10^4/well) was analyzed. The frequency of cells producing interferon (IFN)-gamma per 1×10^5 CTLs upon stimulation with peptide-pulsed T2 cells (2×10^4/well) was also analyzed. Alternatively, 5×10^3 protein-loaded DCs were co-cultured with 2×10^4 CD4^+ T cell clones/well. […]

[2] = tested on: CDCA1-A24 (56-64)-specific CTLs; test: In vitro cross-presentation assay with unfixed or fixed DCs, intracellular IFN-gamma; type: cell-based, human; settings: cross presented by unfixed DCs (DC+LP); peptide 16 micro M, 3 h pulse
Experimental: An HLA-A24^+ donor (HD2)-derived DCs were kept alive or fixed for 3 min in 0.1% glutaraldehyde (Sigma-Aldrich), pulsed with peptides (16 micro M) for 3 h, and washed 3 times. OK432 (0.1 KE/mL, Chugai Pharmaceutical Co, Tokyo, Japan) was added to induce the maturation of DCs during and after the peptide pulse. CDCA1-A24 (56-64)-reactive bulk CTLs were added at a 2:1 ratio for 6 h in medium containing 10 micro g/mL brefeldin A (Sigma-Aldrich). The brefeldin A was added to inhibit protein secretion during the stimulation. IFN-gamma production by the CDCA1-A24 (56-64)-specific CTLs was measured by intracellular labeling. The cells were stained with a FITC-labeled anti-human IFN-gamma mAb (BioLegend) in combination with a PerCP-labeled anti-human CD8 mAb (BioLegend) and a PE-labeled CDCA1-A24 (56-64)-specific tetramer. Data acquisition was performed on a FACSCalibur (BD Biosciences) and data files were analyzed with FlowJo software (Tree Star, Ashland, Oreg.).

## NPKPEVLHMIYMRALQIVYGIRLEHF [CDCA1 (39-64)]
[1]
  Natural processing of the Th cell epitope by DC from CDCA1-protein: naturally processed
[2]
  IFN-gamma secreting tetramer+ CD8+ T-cells: significant proportion
